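In this assay, cells in 96-well plates receive the compound at five concentrations for 48 hours. Endpoints are linearly interpolated between the surrounding concentrations. Definition used: TGI = concentration required for complete inhibition of growth.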
What was measured:
Experiment in all cases: NCI tumour cell line growth inhibition, 48 h
786-0 renal = test system: 786-0 renal
A498 renal = test system: A498 renal
A549 NSCLC = test system: A549 NSCLC
ACHN renal = test system: ACHN renal
CAKI-1 renal = test system: CAKI-1 renal
CCRF-CEM leukemia = test system: CCRF-CEM leukemia
COLO 205 colon = test system: COLO 205 colon
DLD-1 colon = test system: DLD-1 colon
DMS 114 small cell lung = test system: DMS 114 small cell lung
EKVX NSCLC = test system: EKVX NSCLC
HCC-2998 colon = test system: HCC-2998 colon
HCT-116 colon = test system: HCT-116 colon
HCT-15 colon = test system: HCT-15 colon
HL-60(TB) leukemia = test system: HL-60(TB) leukemia
HOP-18 NSCLC = test system: HOP-18 NSCLC
HOP-62 NSCLC = test system: HOP-62 NSCLC
HOP-92 NSCLC = test system: HOP-92 NSCLC
HT29 colon = test system: HT29 colon
IGROV1 ovarian = test system: IGROV1 ovarian
K-562 leukemia = test system: K-562 leukemia
KM12 colon = test system: KM12 colon
LOX IMVI melanoma = test system: LOX IMVI melanoma
LXFL 529 NSCLC = test system: LXFL 529 NSCLC
M14 melanoma = test system: M14 melanoma
MALME-3M melanoma = test system: MALME-3M melanoma
MOLT-4 leukemia = test system: MOLT-4 leukemia
NCI-H226 lung = test system: NCI-H226 lung
NCI-H23 lung = test system: NCI-H23 lung
NCI-H460 lung = test system: NCI-H460 lung
NCI-H522 lung = test system: NCI-H522 lung
OVCAR-4 ovarian = test system: OVCAR-4 ovarian
OVCAR-5 ovarian = test system: OVCAR-5 ovarian
OVCAR-8 ovarian = test system: OVCAR-8 ovarian
RPMI-8226 leukemia = test system: RPMI-8226 leukemia
RXF-631 renal = test system: RXF-631 renal
SF-268 CNS = test system: SF-268 CNS
SF-295 CNS = test system: SF-295 CNS
SF-539 CNS = test system: SF-539 CNS
SK-MEL-2 melanoma = test system: SK-MEL-2 melanoma
SK-MEL-28 melanoma = test system: SK-MEL-28 melanoma
SK-MEL-5 melanoma = test system: SK-MEL-5 melanoma
SK-OV-3 ovarian = test system: SK-OV-3 ovarian
SN12C renal = test system: SN12C renal
SNB-75 CNS = test system: SNB-75 CNS
SNB-78 CNS = test system: SNB-78 CNS
SR leukemia = test system: SR leukemia
SW-620 colon = test system: SW-620 colon
TK-10 renal = test system: TK-10 renal
U251 CNS = test system: U251 CNS
UACC-257 melanoma = test system: UACC-257 melanoma
UACC-62 melanoma = test system: UACC-62 melanoma
UO-31 renal = test system: UO-31 renal
XF 498 CNS = test system: XF 498 CNS
DMS 273 small cell lung = test system: DMS 273 small cell lung
KM20L2 colon = test system: KM20L2 colon
RXF 393 renal = test system: RXF 393 renal
SNB-19 CNS = test system: SNB-19 CNS
M19-MEL melanoma = test system: M19-MEL melanoma
OVCAR-3 ovarian = test system: OVCAR-3 ovarian

Measured: TGI

CCOC(=O)/C(=C/c1ccc(C(F)(F)F)cc1)N(CC)CC
not listed: DMS 273 small cell lung | KM20L2 colon | RXF 393 renal | SNB-19 CNS | M19-MEL melanoma | OVCAR-3 ovarian
> 100 µM: all other assays above

O=C(NC1C(O)C(O)C(CO)OC1n1cc(F)c(=O)[nH]c1=O)OCc1ccccc1 (stereo not given)
not listed: 786-0 renal | EKVX NSCLC | IGROV1 ovarian | K-562 leukemia | MOLT-4 leukemia | OVCAR-8 ovarian | SF-539 CNS | UACC-62 melanoma | UO-31 renal | XF 498 CNS | M19-MEL melanoma | OVCAR-3 ovarian
> 100 µM: all other assays above

O=c1[nH]ccc2c1ccn2C1CC(O)C(CO)O1 (stereo not given)
not listed: SF-268 CNS | XF 498 CNS | KM20L2 colon | RXF 393 renal
> 100 µM: all other assays above

Reference: PubChem BioAssay (NCI)
